Source: patent US20050158320A1, “Combinations for the treatment of proliferative diseases” (priority 2003, published 2005)
Read-outs that look alike come from different tables or passages of the source. Each block holds one compound with its values, some of them ahead of it.

Legend:
[1] = tested on: Human colon adenocarcinoma cell line HCT116; assay: anti-proliferation assay (Alamar Blue); type: cell-based; conditions: read-out: percent inhibition (% I) of cell proliferation
Experimental: Cells were diluted in culture media such that 3000 cells were delivered in 20 μL of media into each assay well. […] Quantification, using an LJL Analyst AD reader (LJL Biosystems), was taken in the middle of the well with high attenuation, a 100 msec read time, an excitation filter at 530 nm, and an emission filter at 575 nm. For some experiments, quantification was performed using a Wallac Victor2 reader. Measurements were taken at the top of the well with stabilized energy lamp control; a 100 msec read time, an excitation filter at […], and an emission filter at 590 nm. No significant differences between plate readers were measured. The percent inhibition (% I) for each well was calculated using the following formula: % I=[(avg. untreated wells−treated well)/(avg. untreated wells)]×100 […] Negative inhibition values result from local variations in treated wells as compared to untreated wells.

[2] = molecular target: T1, Recombinant HsEg5/KSP kinesin motor protein (Homo sapiens, UniProt P52732); assay: cell free motor assay (Kinesin ATPase End Point Biochem Kit, microtubule activated ATPase activity); type: biochemical
T1 sequence (P52732 1-1056): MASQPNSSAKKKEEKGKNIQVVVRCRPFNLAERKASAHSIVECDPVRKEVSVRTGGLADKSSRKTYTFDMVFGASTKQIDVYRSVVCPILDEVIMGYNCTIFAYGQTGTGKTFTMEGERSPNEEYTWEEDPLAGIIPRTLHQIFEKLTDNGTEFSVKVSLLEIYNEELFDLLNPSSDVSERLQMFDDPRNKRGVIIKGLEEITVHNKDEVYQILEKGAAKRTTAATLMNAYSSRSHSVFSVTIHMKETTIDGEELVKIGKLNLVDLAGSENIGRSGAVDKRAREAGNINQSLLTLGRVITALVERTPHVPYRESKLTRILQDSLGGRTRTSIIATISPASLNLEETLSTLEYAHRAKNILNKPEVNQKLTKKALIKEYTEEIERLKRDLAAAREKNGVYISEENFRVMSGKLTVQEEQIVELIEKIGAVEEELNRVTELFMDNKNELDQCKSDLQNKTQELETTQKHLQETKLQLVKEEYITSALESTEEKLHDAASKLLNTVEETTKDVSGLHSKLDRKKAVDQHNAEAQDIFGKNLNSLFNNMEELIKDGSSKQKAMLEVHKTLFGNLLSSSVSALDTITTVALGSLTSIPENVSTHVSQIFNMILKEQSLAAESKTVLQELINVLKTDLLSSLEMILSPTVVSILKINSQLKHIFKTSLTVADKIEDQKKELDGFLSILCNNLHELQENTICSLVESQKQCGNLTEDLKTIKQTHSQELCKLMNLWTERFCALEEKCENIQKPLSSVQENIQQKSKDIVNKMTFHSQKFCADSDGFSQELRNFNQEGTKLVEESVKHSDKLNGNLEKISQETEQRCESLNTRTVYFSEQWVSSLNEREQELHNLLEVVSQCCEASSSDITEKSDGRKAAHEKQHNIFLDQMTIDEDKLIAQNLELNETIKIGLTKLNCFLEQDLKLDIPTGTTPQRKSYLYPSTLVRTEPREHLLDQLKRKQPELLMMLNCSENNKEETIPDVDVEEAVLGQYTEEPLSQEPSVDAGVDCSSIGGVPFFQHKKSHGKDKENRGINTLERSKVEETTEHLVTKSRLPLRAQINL
Experimental: This assay measures organic phosphate (Pi) generated during microtubule activated ATPase activity of kinesin motor proteins. Recombinant HsEg5/KSP kinesin motor protein activity was assayed using the Kinesin ATPase End Point Biochem Kit (Cytoskeleton, catalog # BK053) following the manufacturer's instructions for amounts of reaction buffer, ATP and microtubules. The amount of HsEg5/KSP kinesin protein was optimized to 0.8 μg per reaction and included where indicated. Each assay was performed in a total reaction volume of 30 μL in a clear 96 well ½ area plate (Coming Inc., Costar and cat # 3697) and included the following conditions: • 1. a reaction blank consisting of reaction buffer and ATP only; • 2. negative control reactions containing: • a. microtubules and ATP without kinesin protein or • b. kinesin HsEg5/KSP and ATP without microtubules; and • 3. experimental reactions containing ATP, kinesin, and microtubules with or without compound at the indicated final concentrations.
Reactions were pre-incubated for 15 minutes at room temperature prior to the addition of ATP. After ATP addition, reactions were allowed to proceed for 10 minutes at room temperature prior to termination by the addition of 70 μL of CytoPhos Reagent. Following a last 10-minute incubation at room temperature, reactions were quantitated by reading the absorbance at 650 nm on a spectrophotometer (Beckman Instruments, Inc., Model DU 530). Raw absorbance values were corrected by subtracting the absorbance of the blank. Absorbance was converted into Pi concentration by comparison with a standard Pi curve. Percent inhibition was calculated from Pi concentration according to the following formula: % Inhibition=(untreated-treated)/untreated×100. The arithmetic mean was generated from percent inhibition of experimental replicates.

PRL phosphatases = conditions: Pathak et al., Mol. Cancer Ther. 2002; cited from earlier work

- mitotic kinesin inhibition (in words) ([2]; cell free motor assay): mitotic kinesin inhibitor
- inhibition at 1 µM ([2]; chlorpromazine 1 μM, mean, n = 4, read-out: Percent inhibition of kinesin motor activity): -5.51%
- inhibition at 2 µM ([2]; chlorpromazine 2 μM, mean, n = 4, read-out: Percent inhibition of kinesin motor activity): -11.2%
- inhibition at 4 µM ([2]; chlorpromazine 4 μM, mean, n = 4, read-out: Percent inhibition of kinesin motor activity): 17.4%
- inhibition at 8 µM ([2]; chlorpromazine 8 μM, mean, n = 4, read-out: Percent inhibition of kinesin motor activity): 52.9%
- inhibition at 16 µM ([2]; chlorpromazine 16 μM, mean, n = 4, read-out: Percent inhibition of kinesin motor activity): 85.8%
- inhibition at 32 µM ([2]; chlorpromazine 32 μM, mean, n = 4, read-out: Percent inhibition of kinesin motor activity): 97.8%
- inhibition at 64 µM ([2]; chlorpromazine 64 μM, mean, n = 4, read-out: Percent inhibition of kinesin motor activity): 105%
Structure (SMILES): CN(C)CCCN1c2ccccc2Sc2ccc(Cl)cc21 [Chlorpromazine, chlorpromazine]
- inhibition at 4 µM ([1]; HCT-116, chlorpromazine 4 μM, pentamidine 0 μM): 2.9%
- inhibition at 6 µM ([1]; HCT-116, chlorpromazine 6 μM, pentamidine 0 μM): 0.11%
- inhibition at 7.5 µM ([1]; HCT-116, chlorpromazine 7.5 μM, pentamidine 0 μM): 5.4%
- inhibition at 9 µM ([1]; HCT-116, chlorpromazine 9 μM, pentamidine 0 μM): 4.1%
- inhibition at 10 µM ([1]; HCT-116, chlorpromazine 10 μM, pentamidine 0 μM): 16%
- inhibition at 12 µM ([1]; HCT-116, chlorpromazine 12 μM, pentamidine 0 μM): 22%
- inhibition at 16 µM ([1]; HCT-116, chlorpromazine 16 μM, pentamidine 0 μM): 39%
- inhibition at 20 µM ([1]; HCT-116, chlorpromazine 20 μM, pentamidine 0 μM): 56%
- inhibition at 22 µM ([1]; HCT-116, chlorpromazine 22 μM, pentamidine 0 μM): 59%

Structure (SMILES): N=C(N)c1ccc(OCCCCCOc2ccc(C(=N)N)cc2)cc1 [Pentamidine, pentamidine]
- inhibition at 0.5 µM ([1]; HCT-116, chlorpromazine 0 μM, pentamidine 0.5 μM): 1.2%
- inhibition at 1 µM ([1]; HCT-116, chlorpromazine 0 μM, pentamidine 1 μM): 1.9%
- inhibition at 2 µM ([1]; HCT-116, chlorpromazine 0 μM, pentamidine 2 μM): 3.1%
- inhibition at 4 µM ([1]; HCT-116, chlorpromazine 0 μM, pentamidine 4 μM): -0.77%
- inhibition at 6 µM ([1]; HCT-116, chlorpromazine 0 μM, pentamidine 6 μM): 5%
- inhibition at 9 µM ([1]; HCT-116, chlorpromazine 0 μM, pentamidine 9 μM): 9%
- inhibition at 12 µM ([1]; HCT-116, chlorpromazine 0 μM, pentamidine 12 μM): 9.9%
- inhibition at 15 µM ([1]; HCT-116, chlorpromazine 0 μM, pentamidine 15 μM): 16%
- inhibition at 20 µM ([1]; HCT-116, chlorpromazine 0 μM, pentamidine 20 μM): 19%
- PRL phosphatase inhibition (in words) (PRL phosphatases): inhibitor of the PRL phosphatases
